Measurements: US20040071653A1, “Antimicrobial ternary surfactant blend comprising cationic, anionic, and bridging surfactants, and methods of preparing same” (Stepan Company, priority 2000, published 2004)

How the values were obtained:
[1] = system: Escherichia coli (ATCC 11229); experiment: Minimum Inhibitory Concentration test, bacteriostatic responses; type: cell-based; conditions: for Bacteriostatic response E. coli: triplicate; for Minimum Inhibitory Concentration E. coli: lowest concentration completely inhibiting growth in all three replicates
Protocol: (§1) [table] [table] Add 0.1 ml of inoculum to each 20×150 mm test tube containing 9.0 ml of Nutrient or Sabouraud Dextrose Broth and 1 ml of a aqueous dilution of the test sample. Vortex tube to mix then incubate bacteria inoculated tubes at 36±1° C. for a minimum of 48±1 hour and fungi inoculated tubes at 28° C. for 7-10 days. Following incubation, observe tubes visually for the presence of growth (i.e. turbidity). Perform all testing in triplicate.

[2] = system: Pseudomonas aeruginosa (ATCC 15442); experiment: as above; type: cell-based; conditions: for Minimum Inhibitory Concentration P. aeruginosa: lowest concentration completely inhibiting growth in all three replicates; for Bacteriostatic response P. aeruginosa: triplicate
Protocol: as §1

[3] = system: Staphylococcus aureus (ATCC 6538); experiment: as above; type: cell-based; conditions: for Bacteriostatic response S. aureus: triplicate; for Minimum Inhibitory Concentration S. aureus: lowest concentration completely inhibiting growth in all three replicates
Protocol: as §1

[4] = system: Aspergillus niger (ATCC 16404); experiment: Minimum Inhibitory Concentration test, fungistatic responses; type: cell-based; conditions: for Fungistatic response A. niger: triplicate; for Minimum Inhibitory Concentration A. niger: lowest concentration completely inhibiting growth in all three replicates
Protocol: as §1

[5] = system: Candida albicans (ATCC 10231); experiment: as above; type: cell-based; conditions: for Fungistatic response C. albicans: triplicate; for Minimum Inhibitory Concentration C. albicans: lowest concentration completely inhibiting growth in all three replicates
Protocol: as §1

[6] = Surface tension measurement; type: physicochemical; conditions: 0.1% surfactant blend in water
Source text: (§2) In the following examples, all amounts are stated in percent by weight of active material unless indicated otherwise. Surface tension measurements, Draves wetting measurements, and Ross Miles foaming initial and final measurements all were taken at 0.1% concentration of the surfactant blend in water.

[7] = Draves wetting measurement; type: physicochemical; conditions: 0.1% in water
Source text: as §2

[8] = Ross Miles foaming, initial and final; type: physicochemical; conditions: 0.1% in water
Source text: as §2

[9] = system: Aspergillus niger (ATCC 6275); experiment: Time-Kill; type: cell-based; conditions: 100 ppm active
Protocol: (§3) Formulation 11-1 was prepared as described above and evaluated at two different concentrations against various microorganisms to determine the time required to kill certain levels of the microorganisms. Control formulation 11-2 was also tested in this assay at the same concentrations.
(§4) Preparation: Transfer each organism from stock slant to sterile Nutrient Broth (NB) tube. Incubate NB tubes at 36±1° C. After 24 hours incubation, subculture each broth culture to fresh tube of sterile NB. Repeat subculturing procedure at 24 hour intervals. Use cultures for testing after at least three consecutive 24 hour subculturings.
(§5) 2. Dispense 4.9 gram aliquots of each sample* into sterile medication tubes. Use one tube per organism. (*log10 reductions can be calculated by subtracting the log10 of the average inoculum count from the log10 of the test substance count after 30 seconds, 1 minute or 5 minutes contact)
(§6) 3. Centrifuge 18-24 hour broth culture of each test organism. Decant supernatant and re-suspend in equal volume of phosphate buffer. Re-centrifuge and re-suspend in phosphate buffer. Prepare 1:10 dilution of each culture suspension by adding 2 ml of culture to 18 ml of phosphate buffer. Mix by vortexing. Use this 1:10 dilution as the test inoculum.
(§7) 4. Perform initial plate count of the test inoculum by adding 0.1 ml of the inoculum to 4.9 grams of sterile distilled water. Vortex to mix, then remove 1 ml of solution and dilute in D/E Broth to 1:100,000. Plate 1:1,000, 1:10,000, and 1:100,000 dilutions in Microbial Content Agar (Difco).
(§8) 5. Begin testing of substances by adding 0.1 ml of test inoculum to sample tube. Vortex to mix. After 30 seconds, remove 1 ml of sample and add to 9 mls of DE broth, rinse pipette 5 times with sample and vortex. Remove additional 1 ml sample after 1 and 5 minutes contact and add to 9 mls of D/E Broth. Dilute each tube to 1:10,000 in D/E Broth and plate 1:1,000, 1:10,000, and 1:100,000 dilutions in Microbial Content Agar.
(§9) 7. After completion of step 6, perform final plate count of inoculum suspension by adding 0.1 ml of the suspension to 4.9 grams of sterile distilled water. Vortex to mix then remove 1 ml of solution and dilute in D/E Broth to 1:100,000. Plate 1:1,000, 1:10,000, and 1:100,000 dilutions in Microbial Content Agar (Difco).
(§10) 8. Incubate plates at 36±1° C. for 48 hours.
(§11) 9. Record all test results and calculate percent kills* after 30 seconds, 1 minute, and 5 minutes contact as follows: (*log10 reductions can be calculated by subtracting the log10 of the average inoculum count from the log10 of the test substance count after 30 seconds, 1 minute or 5 minutes contact) [formula]
(§12) X=Average of initial and final inoculum control counts, org/ml (Note: The difference between initial and final inoculum counts must be≦1 log for a valid study)
(§13) Y=Test substance bacterial count as org/ml after 30 seconds, 1 minute, or 5 minutes contact

[10] = system: Candida albicans (ATCC 10231); experiment: Time-Kill; type: cell-based; conditions: 100 ppm active
Protocol: as §3, §4, §5, §6, §7, §8, §9, §10, §11, §12, §13

[11] = system: Escherichia coli (ATCC 11229); experiment: Time-Kill; type: cell-based; conditions: 100 ppm active
Protocol: as §3, §4, §5, §6, §7, §8, §9, §10, §11, §12, §13

[12] = system: Staphylococcus aureus (ATCC 6538); experiment: Time-Kill; type: cell-based; conditions: 100 ppm active
Protocol: as §3, §4, §5, §6, §7, §8, §9, §10, §11, §12, §13

Pa (ATCC 9027) = experiment: Time-Kill; type: cell-based, Pseudomonas aeruginosa; conditions: 50 ppm active
Protocol: as §3, §4, §5, §6, §7, §8, §9, §10, §11, §12, §13

[13] = system: Psudomonas aeruginosa (ATCC 15442); experiment: Time-Kill; type: cell-based, Pseudomonas aeruginosa; conditions: 100 ppm active
Protocol: as §3, §4, §5, §6, §7, §8, §9, §10, §11, §12, §13

For `CCCCCCCCCCCC[N+](C)(C)[O-]` [AMMONYX-LO, Lauramine oxide], the “Bacteriostatic response E. coli” value ([1]; 1000 ppm active) was 000, the “Minimum Inhibitory Concentration E. coli” value [1] was 1000 ppm, active and the “Minimum Inhibitory Concentration P. aeruginosa” value [2] was >1000 ppm, active. The “Bacteriostatic response S. aureus” value ([3]; 100 ppm active) was 000, the “Bacteriostatic response S. aureus” value ([3]; 1000 ppm active) was 000 and the “Minimum Inhibitory Concentration S. aureus” value [3] was 100 ppm, active. For the same compound, the “Fungistatic response A. niger” value ([4]; 100 ppm active) was 000, the “Fungistatic response A. niger” value ([4]; 1000 ppm active) was 000 and the “Minimum Inhibitory Concentration A. niger” value [4] was 100 ppm, active. For the same compound, the “Fungistatic response C. albicans” value ([5]; 100 ppm active) was 000, the “Fungistatic response C. albicans” value ([5]; 1000 ppm active) was 000 and the “Minimum Inhibitory Concentration C. albicans” value [5] was 100 ppm, active.
For `CCCCCCCCS(=O)(=O)[O-].[Na+]` [BIO-TERGE PAS-8S, Sodium 1-octane sulfonate], the “Minimum Inhibitory Concentration E. coli” value [1] was >1000 ppm, active, the “Minimum Inhibitory Concentration P. aeruginosa” value [2] was >1000 ppm, active and the “Minimum Inhibitory Concentration S. aureus” value [3] was >1000 ppm, active. For the same compound, the “Minimum Inhibitory Concentration A. niger” value [4] was >1000 ppm, active and the “Minimum Inhibitory Concentration C. albicans” value [5] was >1000 ppm, active.
With `CCCCCCCCCC[N+](C)(C)C.[Cl-]` [QC10, Decyltrimethylammonium chloride] the “Surface Tension” value [6] was 39.28 mN/m, the Wetting [7] was 100 s and the “Foaming Final” value [8] was 0/0 cm. For the same compound, the “Foaming Initial” value [8] was 0/0 cm.
In the case of Cocamidopropyl betaine [Amphosol ® CA], the “Surface Tension” value [6] is reported as 36.75 mN/m, the Wetting [7] is reported as 100 s and the “Foaming Final” value [8] is reported as 12.9 cm. For the same compound, the “Foaming Initial” value [8] was 13 cm.
For “N-Alkyl dimethyl benzyl ammonium chloride [BTC 65NF]”, the “Bacteriostatic response E. coli” value ([1]; 10 ppm active) was 000, the “Bacteriostatic response E. coli” value ([1]; 100 ppm active) was 000 and the “Bacteriostatic response E. coli” value ([1]; 1000 ppm active) was 000. For the same compound, the “Minimum Inhibitory Concentration E. coli” value [1] was 10 ppm, active, the “Bacteriostatic response P. aeruginosa” value ([2]; 100 ppm active) was 000 and the “Bacteriostatic response P. aeruginosa” value ([2]; 1000 ppm active) was 000. The “Minimum Inhibitory Concentration P. aeruginosa” value [2] was 100 ppm, active, the “Bacteriostatic response S. aureus” value ([3]; 1 ppm active) was 000 and the “Bacteriostatic response S. aureus” value ([3]; 10 ppm active) was 000. The “Bacteriostatic response S. aureus” value ([3]; 100 ppm active) was 000, the “Bacteriostatic response S. aureus” value ([3]; 1000 ppm active) was 000 and the “Minimum Inhibitory Concentration S. aureus” value [3] was <1 ppm, active. The “Fungistatic response A. niger” value ([4]; 10 ppm active) was 000, the “Fungistatic response A. niger” value ([4]; 100 ppm active) was 000 and the “Fungistatic response A. niger” value ([4]; 1000 ppm active) was 000. The “Minimum Inhibitory Concentration A. niger” value [4] was 10 ppm, active, the “Fungistatic response C. albicans” value ([5]; 10 ppm active) was 000 and the “Fungistatic response C. albicans” value ([5]; 100 ppm active) was 000. The “Fungistatic response C. albicans” value ([5]; 1000 ppm active) was 000, the “Minimum Inhibitory Concentration C. albicans” value [5] was 10 ppm, active and the “Percent Kill An” value ([9]; 5 Minutes contact) was 92.3 % K. The “Percent Kill An” value ([9]; 30 Seconds contact) was 0.0 % K, the “Percent Kill An” value ([9]; 60 Seconds contact) was 22.5 % K and the “Percent Kill Ca” value ([10]; 5 Minutes contact) was greater than 99.7 % K. For the same compound, the “Percent Kill Ca” value ([10]; 30 Seconds contact) was greater than 99.7 % K, the “Percent Kill Ca” value ([10]; 60 Seconds contact) was greater than 99.7 % K and the “Percent Kill Ec” value ([11]; 5 Minutes contact) was greater than 99.9 % K. For the same compound, the “Percent Kill Ec” value ([11]; 30 Seconds contact) was greater than 99.9 % K, the “Percent Kill Ec” value ([11]; 60 Seconds contact) was greater than 99.9 % K and the “Percent Kill Sa” value ([12]; 5 Minutes contact) was greater than 99.8 % K. For the same compound, the “Percent Kill Sa” value ([12]; 30 Seconds contact) was 65.5 % K, the “Percent Kill Sa” value ([12]; 60 Seconds contact) was 83.6 % K and the “Percent Kill Pa (ATCC 9027)” value (Pa (ATCC 9027); 5 Minutes contact) was greater than 99.9 % K. For the same compound, the “Percent Kill Pa (ATCC 9027)” value (Pa (ATCC 9027); 30 Seconds contact) was 99.9 % K, the “Percent Kill Pa (ATCC 9027)” value (Pa (ATCC 9027); 60 Seconds contact) was greater than 99.9 % K and the “Percent Kill Pa” value ([13]; 5 Minutes contact) was 99.9 % K. For the same compound, the “Percent Kill Pa” value ([13]; 30 Seconds contact) was 99.9 % K and the “Percent Kill Pa” value ([13]; 60 Seconds contact) was 99.9 % K.
